In patent publication US10227357B2, “Compounds and methods for kinase modulation, and indications therefor” (Plexxikon Inc., priority 2012, dated 2019):

Key:
c-kit mutant D816V = target: T1, c-kit mutant D816V (Homo sapiens, UniProt P10721, D816V/DEL694-753); assay: c-Kit mutant D816V biochemical assay, AlphaScreen; conditions: c-kit D816V biochemical inhibitory activity; read-out: Biochemical activity (IC50 μM) Kit D816V
T1 construct: residues 551-934, kinase insertion domain residues 694-753 deleted; 6x-histidine (N); made in house; host or cells: E. coli Arctic Express (DE3) RIL (Stratagene)
How it was run: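 Eight-point, threefold compound series incubated 30 min at room temperature with E. coli-produced D816V kinase, 10 μM ATP, Mg2+/Mn2+ HEPES buffer pH 7.2 and 5% DMSO. After EDTA stop, streptavidin and anti-phosphotyrosine (PY20) AlphaScreen beads gave the read-out, and IC50 was fitted from the concentration–signal curve.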

c-kit kinase = target: T2, c-kit kinase (Homo sapiens, UniProt P10721); assay: c-Kit biochemical assay, AlphaScreen, 10 μM ATP; conditions: c-kit biochemical inhibitory activity; read-out: Biochemical activity (IC50 μM) Kit
T2 construct: The c-kit (or kinase domain thereof) is an active kinase in AlphaScreen; poly-Histidine tag (in-house protein only) (cleaved yes); host or cells: E. coli BL21(DE3)RIL, co-expressed with PTP1B
How it was run: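 His-tagged c-Kit expressed in E. coli with co-expressed PTP1B (dephosphorylated), tag removed; 0.1 ng per reaction with biotinylated-peptide substrate in 50 mM HEPES pH 7.2, 5 mM MgCl2, 5 mM MnCl2, 5% DMSO, 10 μM ATP, 1 h at room temperature. Phosphorylation detected by AlphaScreen (streptavidin donor, PY20 acceptor beads); IC50 from 8-point 1:3 dilution series.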

T2 sequence (P10721 26-976): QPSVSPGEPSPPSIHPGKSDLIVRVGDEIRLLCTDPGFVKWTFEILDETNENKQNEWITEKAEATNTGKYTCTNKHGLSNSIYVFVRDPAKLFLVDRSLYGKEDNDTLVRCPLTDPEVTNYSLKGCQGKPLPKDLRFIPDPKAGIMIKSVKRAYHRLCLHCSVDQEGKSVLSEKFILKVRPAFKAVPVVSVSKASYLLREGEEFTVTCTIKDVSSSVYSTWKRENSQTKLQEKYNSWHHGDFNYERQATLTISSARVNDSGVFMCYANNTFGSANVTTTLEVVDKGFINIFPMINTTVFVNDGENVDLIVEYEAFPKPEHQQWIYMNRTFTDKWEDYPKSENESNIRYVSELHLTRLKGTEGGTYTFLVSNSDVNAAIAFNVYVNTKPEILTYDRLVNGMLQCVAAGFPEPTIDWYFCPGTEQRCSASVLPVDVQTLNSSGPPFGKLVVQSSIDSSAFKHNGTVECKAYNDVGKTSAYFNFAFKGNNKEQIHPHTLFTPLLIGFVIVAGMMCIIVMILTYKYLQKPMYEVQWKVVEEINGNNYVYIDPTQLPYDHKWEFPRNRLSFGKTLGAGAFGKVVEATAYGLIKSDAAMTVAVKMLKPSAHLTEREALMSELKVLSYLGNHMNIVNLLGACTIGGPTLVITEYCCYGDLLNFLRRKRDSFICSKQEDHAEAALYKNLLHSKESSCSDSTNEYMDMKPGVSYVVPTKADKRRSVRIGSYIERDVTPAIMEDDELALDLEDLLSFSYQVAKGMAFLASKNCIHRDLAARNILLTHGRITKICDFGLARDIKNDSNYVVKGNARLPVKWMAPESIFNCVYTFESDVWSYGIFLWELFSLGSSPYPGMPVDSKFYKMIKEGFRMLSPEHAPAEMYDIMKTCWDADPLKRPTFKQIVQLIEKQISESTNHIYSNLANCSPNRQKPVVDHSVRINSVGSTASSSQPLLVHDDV
T1 sequence (P10721 with tags, fused parts or gaps DEL694-753/D816V): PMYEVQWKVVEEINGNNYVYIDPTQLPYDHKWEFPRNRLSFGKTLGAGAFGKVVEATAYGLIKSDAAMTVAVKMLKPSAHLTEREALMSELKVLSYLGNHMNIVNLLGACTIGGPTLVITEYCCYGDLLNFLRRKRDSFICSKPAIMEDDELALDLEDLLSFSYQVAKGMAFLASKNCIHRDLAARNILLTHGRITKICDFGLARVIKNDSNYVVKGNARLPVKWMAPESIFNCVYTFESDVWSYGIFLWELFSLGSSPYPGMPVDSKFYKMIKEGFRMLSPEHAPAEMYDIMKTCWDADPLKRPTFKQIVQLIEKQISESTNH

Compound	IC50 (c-kit mutant D816V) [µM]	IC50 (c-kit kinase) [µM]
COc1cccc([C@H](C)NC(=O)N2CC3CCC2CN3c2ncnc3cc(-c4ccc(F)cc4)sc23)c1 (stereo partly drawn) [P-0566, 5-[6-(4-fluorophenyl)thieno[3,2-d]pyrimidin-4-yl]-N-[(1S)-1-(3-methoxyphenyl)ethyl]-2,5-diazabicyclo[2.2.2]octane-2-carboxamide]	1 to 10	10 to 200
O=C(Nc1ccc(OC(F)(F)F)cc1)N1CCN(c2ncnc3[nH]c(-c4cnc(C5CC5)nc4)cc23)CC1 [P-0112, 4-[6-(2-cyclopropylpyrimidin-5-yl)-7H-pyrrolo[2,3-d]pyrimidin-4-yl]-N-[4-(trifluoromethoxy)phenyl]piperazine-1-carboxamide]	10 to 200	1 to 10
O=C(NCc1cccc(F)c1)NC1CCN(c2ncnc3[nH]ccc23)CC1 [P-0510, 1-[(3-fluorophenyl)methyl]-3-[1-(7H-pyrrolo[2,3-d]pyrimidin-4-yl)-4-piperidyl]urea]	10 to 200	10 to 200
Cc1nn(C)cc1-c1cc2ncnc(N3CCN(C(=O)N[C@@H](C)c4cccc(Cl)c4)C(C)(C)C3)c2s1 [P-0564, N-[(1S)-1-(3-chlorophenyl)ethyl]-4-[6-(1,3-dimethylpyrazol-4-yl)thieno[3,2-d]pyrimidin-4-yl]-2,2-dimethyl-piperazine-1-carboxamide]	0.0001 to 1	1 to 10
C[C@H](NC(=O)N1CCN(c2ncnc3cc(N4CCOCC4)sc23)CC1(C)C)c1cccc(Cl)c1 [P-0558, N-[(1S)-1-(3-chlorophenyl)ethyl]-2,2-dimethyl-4-(6-morpholinothieno[3,2-d]pyrimidin-4-yl)piperazine-1-carboxamide]	0.0001 to 1	1 to 10
Cc1ccc(S(=O)(=O)Nc2ccc(-c3ncnc4cc(C5=CCN(C(=O)C6CC6)CC5)sc34)cc2)cc1 [P-0583, N-[4-[6-[1-(cyclopropanecarbonyl)-3,6-dihydro-2H-pyridin-4-yl]thieno[3,2-d]pyrimidin-4-yl]phenyl]-4-methyl-benzenesulfonamide]	0.0001 to 1	0.0001 to 1
C[C@H](NC(=O)N1CCN(c2ncnc3cc(C4=CCN(C(=O)C5CC5)CC4)sc23)CC1(C)C)c1cccc(Cl)c1 [P-0552, N-[(1S)-1-(3-chlorophenyl)ethyl]-4-[6-[1-(cyclopropanecarbonyl)-3,6-dihydro-2H-pyridin-4-yl]thieno[3,2-d]pyrimidin-4-yl]-2,2-dimethyl-piperazine-1-carboxamide]	0.0001 to 1	0.0001 to 1
CC(C)(NC(=O)N1CC=C(c2ncnc3cc(-c4ccc(F)cc4)sc23)CC1)c1ccccc1 [P-0679, 4-[6-(4-fluorophenyl)thieno[3,2-d]pyrimidin-4-yl]-N-(1-methyl-1-phenyl-ethyl)-3,6-dihydro-2H-pyridine-1-carboxamide]	0.0001 to 1	1 to 10
Cc1n[nH]c2ncnc(-c3ccc(NS(=O)(=O)c4cccc(F)c4)cc3)c12 [P-0440, 3-fluoro-N-[4-(3-methyl-1H-pyrazolo[3,4-d]pyrimidin-4-yl)phenyl]benzenesulfonamide]	0.0001 to 1	1 to 10
Cc1ccc(S(=O)(=O)NC2CCN(c3ncnc4[nH]c(-c5cnn(C)c5)cc34)CC2)s1 [P-0454, 5-methyl-N-[1-[6-(1-methylpyrazol-4-yl)-7H-pyrrolo[2,3-d]pyrimidin-4-yl]-4-piperidyl]thiophene-2-sulfonamide]	0.0001 to 1	10 to 200
Cc1nn(C)cc1-c1cc2c(N3CCN(C(=O)N[C@@H](C)c4ccc(Cl)cc4)C(C)(C)C3)ncnc2[nH]1 [P-0723, N-[(1S)-1-(4-chlorophenyl)ethyl]-4-[6-(1,3-dimethylpyrazol-4-yl)-7H-pyrrolo[2,3-d]pyrimidin-4-yl]-2,2-dimethyl-piperazine-1-carboxamide]	0.0001 to 1	0.0001 to 1
N#CC1(c2ccc(-c3cc4c(N5CCN(C(=O)Nc6ccc(OC(F)(F)F)cc6)CC5)ncnc4[nH]3)cc2)CC1 [P-0113, 4-[6-[4-(1-cyanocyclopropyl)phenyl]-7H-pyrrolo[2,3-d]pyrimidin-4-yl]-N-[4-(trifluoromethoxy)phenyl]piperazine-1-carboxamide]	1 to 10	0.0001 to 1
